From ChEMBL document CHEMBL1147674, “Evolution of the thienopyridine class of inhibitors of IkappaB kinase-beta: part I: hit-to-lead strategies” (J Med Chem, 2006) come the findings set out here.

In brackets after ≈: the same amount, converted by molar mass. A value given as a limit tells only on which side of the number the result lay.

The target in one series is Cytochrome P450 2D6 (Homo sapiens, UniProt P10635). Nature of the series: Inhibition of CYP2D6. It is filed as ADME.
A short description of series [1]: Half life in human liver microsome. The series is classed as ADME. The following applies: liver microsomes.
Series [2] in a line: Inhibition of NF-kappaB luciferase reporter gene in HeLa cells at 10 uM. The series is classed as functional. Particulars: Homo sapiens. Background: In a reporter assay the amount or activity of a reporter protein is the signal.
Series [3] is described as follows: Permeability from apical to basolateral side of Caco-2 cell membrane. It is filed as ADME, cell-based. The following applies: human, read-out: permeability. A general note: Passage across Caco-2 layers is used to estimate intestinal permeability.
A short description of series [4]: Solubility at pH 7.4. It is filed as physicochemical. Particulars: buffer.
A further series addresses Cytochrome P450 2C9 (Homo sapiens, UniProt P11712). Nature of the series: Inhibition of CYP2C9. The series is classed as ADME.
Series [5] in a line: Inhibition of ICAM1 expression in HeLa cells at 10 uM. It is filed as functional. The following applies: Homo sapiens.
The target of series [6] is cAMP-dependent protein kinase (PKA) (Homo sapiens, UniProt P22694+P17612+P22612). In words: Inhibition of PKA. The series is classed as protein assay.
The target of series [7] is Tyrosine-protein kinase BTK (Homo sapiens, UniProt Q06187). In words: Inhibition of BTK.
Chain of Tyrosine-protein kinase BTK (Q06187 whole entry): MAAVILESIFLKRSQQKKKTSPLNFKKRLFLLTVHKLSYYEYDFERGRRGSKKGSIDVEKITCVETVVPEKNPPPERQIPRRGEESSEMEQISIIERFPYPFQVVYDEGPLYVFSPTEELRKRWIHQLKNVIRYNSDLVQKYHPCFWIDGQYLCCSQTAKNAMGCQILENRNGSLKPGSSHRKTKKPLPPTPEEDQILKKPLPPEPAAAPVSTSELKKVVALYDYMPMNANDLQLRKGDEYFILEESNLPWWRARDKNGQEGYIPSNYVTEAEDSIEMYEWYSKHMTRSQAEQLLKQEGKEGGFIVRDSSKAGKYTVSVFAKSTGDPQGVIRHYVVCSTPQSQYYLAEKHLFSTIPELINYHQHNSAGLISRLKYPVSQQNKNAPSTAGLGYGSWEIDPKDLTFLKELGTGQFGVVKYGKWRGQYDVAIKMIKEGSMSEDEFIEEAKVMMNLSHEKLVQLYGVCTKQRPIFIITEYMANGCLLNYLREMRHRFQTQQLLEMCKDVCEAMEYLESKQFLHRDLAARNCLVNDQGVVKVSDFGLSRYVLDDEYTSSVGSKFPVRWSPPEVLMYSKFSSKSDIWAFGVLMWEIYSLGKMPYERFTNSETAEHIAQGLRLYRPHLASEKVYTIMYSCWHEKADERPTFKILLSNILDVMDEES
For series [8], the system named is HeLa. Nature of the series: Viability of HeLa cells at 50 uM by alomar blue assay. It is filed as functional, Homo sapiens.
Series [9] has as its system HeLa. Nature of the series: Viability of HeLa cells at 10 uM by alomar blue assay. It is filed as functional, Homo sapiens.
Series [10] has as its target T1, Inhibitor of nuclear factor kappa-B kinase subunit beta (Homo sapiens, UniProt O14920).
T1 sequence (O14920 whole entry): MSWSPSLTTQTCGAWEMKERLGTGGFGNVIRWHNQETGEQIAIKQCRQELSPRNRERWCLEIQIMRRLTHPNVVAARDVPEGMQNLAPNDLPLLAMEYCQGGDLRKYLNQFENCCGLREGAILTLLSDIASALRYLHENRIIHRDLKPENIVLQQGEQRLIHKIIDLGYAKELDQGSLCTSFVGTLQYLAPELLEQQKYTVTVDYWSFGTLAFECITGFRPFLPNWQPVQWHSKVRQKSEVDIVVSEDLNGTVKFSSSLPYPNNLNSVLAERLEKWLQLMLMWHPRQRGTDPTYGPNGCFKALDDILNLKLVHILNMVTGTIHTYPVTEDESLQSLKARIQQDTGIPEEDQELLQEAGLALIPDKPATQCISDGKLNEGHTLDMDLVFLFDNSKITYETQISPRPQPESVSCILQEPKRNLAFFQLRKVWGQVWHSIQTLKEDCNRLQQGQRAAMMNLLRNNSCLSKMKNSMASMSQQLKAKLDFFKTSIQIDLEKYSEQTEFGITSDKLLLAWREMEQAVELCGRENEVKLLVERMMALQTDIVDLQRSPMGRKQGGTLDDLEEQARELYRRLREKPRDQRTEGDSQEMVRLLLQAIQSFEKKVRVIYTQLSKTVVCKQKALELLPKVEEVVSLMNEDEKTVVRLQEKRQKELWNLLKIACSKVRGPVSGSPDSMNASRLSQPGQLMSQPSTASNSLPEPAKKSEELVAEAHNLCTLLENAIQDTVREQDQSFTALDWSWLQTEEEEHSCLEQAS

Series [11] addresses T2, Inhibitor of nuclear factor kappa-B kinase subunit alpha (Homo sapiens, UniProt O15111).
T2 sequence (O15111 whole entry): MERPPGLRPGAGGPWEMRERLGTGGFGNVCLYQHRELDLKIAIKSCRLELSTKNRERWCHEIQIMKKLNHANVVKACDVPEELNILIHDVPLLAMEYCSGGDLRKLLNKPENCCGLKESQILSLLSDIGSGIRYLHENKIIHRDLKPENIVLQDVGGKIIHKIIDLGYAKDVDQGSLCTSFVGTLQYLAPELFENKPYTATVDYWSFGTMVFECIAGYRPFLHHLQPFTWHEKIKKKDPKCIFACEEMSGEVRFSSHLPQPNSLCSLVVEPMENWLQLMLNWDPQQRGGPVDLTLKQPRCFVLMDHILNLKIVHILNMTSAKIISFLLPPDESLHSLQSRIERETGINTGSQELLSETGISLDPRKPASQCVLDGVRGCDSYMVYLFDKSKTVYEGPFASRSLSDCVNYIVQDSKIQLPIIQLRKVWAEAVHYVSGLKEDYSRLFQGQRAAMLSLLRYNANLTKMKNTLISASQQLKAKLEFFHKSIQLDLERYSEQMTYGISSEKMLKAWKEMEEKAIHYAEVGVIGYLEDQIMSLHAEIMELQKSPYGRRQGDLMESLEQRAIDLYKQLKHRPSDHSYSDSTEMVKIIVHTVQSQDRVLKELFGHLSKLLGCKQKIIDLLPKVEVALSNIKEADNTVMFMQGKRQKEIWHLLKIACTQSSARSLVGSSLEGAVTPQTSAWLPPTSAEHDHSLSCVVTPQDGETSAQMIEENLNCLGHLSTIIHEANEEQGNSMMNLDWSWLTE
Nature of the series: Inhibition of IKK alpha.

The next series concerns the target Cytochrome P450 2C19 (Homo sapiens, UniProt P33261). Nature of the series: Inhibition of CYP2C19. The series is classed as ADME.
The next series has as its target T3, Cytochrome P450 1A2 (Homo sapiens, UniProt P05177).
T3 sequence (P05177 whole entry): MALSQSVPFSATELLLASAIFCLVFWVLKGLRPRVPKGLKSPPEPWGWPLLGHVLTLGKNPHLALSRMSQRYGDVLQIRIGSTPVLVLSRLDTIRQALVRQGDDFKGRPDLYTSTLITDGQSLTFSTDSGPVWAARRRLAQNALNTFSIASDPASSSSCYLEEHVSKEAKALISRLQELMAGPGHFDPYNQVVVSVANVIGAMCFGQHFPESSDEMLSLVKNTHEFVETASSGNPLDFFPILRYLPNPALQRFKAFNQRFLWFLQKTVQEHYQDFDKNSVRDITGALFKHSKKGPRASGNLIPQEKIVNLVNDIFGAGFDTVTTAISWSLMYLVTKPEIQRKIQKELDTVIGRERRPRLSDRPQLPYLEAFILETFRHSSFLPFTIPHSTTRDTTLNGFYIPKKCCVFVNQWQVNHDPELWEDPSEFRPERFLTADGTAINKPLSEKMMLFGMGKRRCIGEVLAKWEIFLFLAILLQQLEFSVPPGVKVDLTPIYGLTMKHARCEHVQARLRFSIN
In words: Inhibition of CYP1A2. The series is classed as ADME.

The target of a further series is Cytochrome P450 3A4 (Homo sapiens, UniProt P08684). In words: Inhibition of CYP3A4. It is filed as ADME.
Chain of Cytochrome P450 3A4 (P08684 whole entry): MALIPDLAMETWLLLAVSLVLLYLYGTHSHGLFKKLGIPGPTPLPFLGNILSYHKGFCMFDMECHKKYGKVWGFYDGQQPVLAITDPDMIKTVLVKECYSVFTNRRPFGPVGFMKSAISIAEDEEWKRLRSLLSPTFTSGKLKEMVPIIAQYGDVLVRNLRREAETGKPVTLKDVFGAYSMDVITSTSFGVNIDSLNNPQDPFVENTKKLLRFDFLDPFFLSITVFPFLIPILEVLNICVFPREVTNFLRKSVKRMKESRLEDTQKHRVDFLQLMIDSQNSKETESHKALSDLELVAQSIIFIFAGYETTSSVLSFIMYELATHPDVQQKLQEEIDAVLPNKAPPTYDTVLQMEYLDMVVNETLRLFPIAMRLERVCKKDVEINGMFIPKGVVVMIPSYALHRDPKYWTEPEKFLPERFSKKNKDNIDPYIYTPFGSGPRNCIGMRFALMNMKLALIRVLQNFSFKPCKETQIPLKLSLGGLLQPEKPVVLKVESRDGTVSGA

Chain of Cytochrome P450 2C9 (P11712 whole entry): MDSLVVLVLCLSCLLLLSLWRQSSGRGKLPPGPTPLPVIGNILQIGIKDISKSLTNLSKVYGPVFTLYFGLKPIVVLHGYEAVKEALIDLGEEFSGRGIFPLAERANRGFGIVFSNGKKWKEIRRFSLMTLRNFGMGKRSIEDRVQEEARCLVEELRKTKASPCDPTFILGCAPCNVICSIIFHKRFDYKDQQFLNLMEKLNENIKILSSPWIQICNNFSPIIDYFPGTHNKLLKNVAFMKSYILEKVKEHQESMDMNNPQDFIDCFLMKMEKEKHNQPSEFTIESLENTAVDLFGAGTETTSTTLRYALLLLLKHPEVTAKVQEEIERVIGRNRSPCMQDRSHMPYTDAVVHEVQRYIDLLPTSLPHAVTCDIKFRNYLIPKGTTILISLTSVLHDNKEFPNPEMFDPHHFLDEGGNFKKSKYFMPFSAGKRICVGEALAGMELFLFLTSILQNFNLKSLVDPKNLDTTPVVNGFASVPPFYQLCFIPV
Chain of Cytochrome P450 2D6 (P10635 whole entry): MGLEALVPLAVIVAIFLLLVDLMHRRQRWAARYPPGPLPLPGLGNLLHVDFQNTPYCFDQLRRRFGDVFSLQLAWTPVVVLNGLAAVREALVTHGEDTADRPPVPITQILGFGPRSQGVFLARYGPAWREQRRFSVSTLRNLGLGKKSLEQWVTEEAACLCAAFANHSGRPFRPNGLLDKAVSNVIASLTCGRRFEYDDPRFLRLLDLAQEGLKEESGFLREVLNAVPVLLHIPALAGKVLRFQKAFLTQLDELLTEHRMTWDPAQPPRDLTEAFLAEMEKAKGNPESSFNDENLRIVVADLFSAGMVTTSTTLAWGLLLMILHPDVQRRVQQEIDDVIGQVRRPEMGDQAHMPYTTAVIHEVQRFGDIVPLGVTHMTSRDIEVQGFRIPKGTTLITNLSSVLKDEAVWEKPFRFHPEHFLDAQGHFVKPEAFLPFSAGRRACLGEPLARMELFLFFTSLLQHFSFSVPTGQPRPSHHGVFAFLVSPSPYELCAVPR
Chain of Cytochrome P450 2C19 (P33261 whole entry): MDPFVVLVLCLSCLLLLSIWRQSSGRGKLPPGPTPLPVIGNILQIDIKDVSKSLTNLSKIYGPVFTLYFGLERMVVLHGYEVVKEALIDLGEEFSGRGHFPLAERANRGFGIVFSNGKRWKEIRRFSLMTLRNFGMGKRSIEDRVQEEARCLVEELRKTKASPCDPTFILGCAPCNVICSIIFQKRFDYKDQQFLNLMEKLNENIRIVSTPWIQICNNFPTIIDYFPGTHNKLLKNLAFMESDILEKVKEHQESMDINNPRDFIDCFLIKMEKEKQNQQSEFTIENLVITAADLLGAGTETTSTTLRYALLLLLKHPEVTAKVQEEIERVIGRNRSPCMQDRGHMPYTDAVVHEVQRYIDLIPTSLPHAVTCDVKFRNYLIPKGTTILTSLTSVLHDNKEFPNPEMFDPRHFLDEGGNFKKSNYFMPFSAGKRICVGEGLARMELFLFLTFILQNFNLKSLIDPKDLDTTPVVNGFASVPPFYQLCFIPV

Regarding `Cc1cc(C)c2c(N)c(C(N)=O)sc2n1`, the IC50 (as a rule, the point on the concentration scale where inhibition reaches its midpoint) is above 30 µM against Cytochrome P450 2D6; above 30 µM against Cytochrome P450 2C9; 27 µM in series [6]; 4.1 µM in series [7]; 2.2 µM in [10]; 2.8 µM in series [11]. Moreover, the IC50 at Cytochrome P450 2C19, on Cytochrome P450 1A2 and against Cytochrome P450 3A4 was above 30 µM each time. Also, in [1], the half-life – broadly, the time in which the quantity being followed falls by half – amounted to 1.3 h. Also, the inhibition – broadly, the share of the control response that was lost under treatment – at 10 µM in series [2] worked out at 45%; in series [5], 42%. Besides, in series [3], the Papp A→B stood at 13.6 ×10⁻⁶ cm/s. Moreover, the concentration in solution in series [4] (solubility) was 24 µg/mL (≈ 108 µM). For the same compound, the figures for the Activity in the series with HeLa [8] and in the series on HeLa [9] were 68% and 100%, respectively.
